Data published in US20260158125A1, “PEPTIDE VACCINE” (ARGONAUT THERAPEUTICS LIMITED, priority 2021, published 2026).

Test system: splenocytes (IFN y activated T cells)
Assay: Immunogenicity assay: peptide vaccination and interferon gamma ELispot of splenocytes
Assay type: in vivo
Settings: Balb/c mice vaccinated day 0 and 7, 50 μg/peptide with polyIC and anti-CD40; splenocytes restimulated at 15 μg/ml
Protocol: Groups of 8 week old Balb/c mice (Charles River) were vaccinated i.v with the indicated peptide mix (Table 2), (50 μg/peptide (GenScript)) with 30 μg polyIC and 25 μg anti-CD40 mAb). As a positive control AH peptide (SPSYVYHQF SEQ ID NO: 156) vaccination was used (Huang et al., 1996). Vehicle-only mice were vaccinated with DMSO/PBS plus adjuvants as above. Mice were boosted i.v. 7 days later with the same formulation. Mice were culled 7 days post-boost and their spleens removed (4 mice per group). All animals were housed in specific pathogen-free conditions at the Biomedical Services Building (University of Oxford). All work was performed under UK Home Office license PPL PP3430109 in accordance with the UK Animal (Scientific Procedures) Act 1986. All work was performed by trained and licensed individuals.
The day before culling, Merk Multiscreen 96 well Filter Plates (Merck) were incubated with primary antibody (anti-mouse INFy mAb clone AN18, Mabtech) diluted in sterile PBS (Gibco), at 4° C. […] The splenocyte pellet was resuspended in 5 ml R10, counted and the cell concentration adjusted to 4×10^5/ml. […] The spots were quantitated on an ELISPOT counter (AID, Germany).

SPSYVYHQF (AH1 peptide) [AHI1]
immunogenicity (IFN y activated T cells, ELISpot): positive immunogenic control
